From patent US20230131339A1, “EPI-X4 BASED PEPTIDES AND DERIVATIVES THEREOF” (Universitaet Ulm, priority 2020, published 2023)
Where a SMILES comes first, the peptide text is derived from it. Where no end group is shown, it is not given here. Side-chain parts run from the residue outwards. [ ]: non-standard residue; d: D form. The star is where a group is joined. Palmitoyl = CCCCCCCCCCCCCCCC(=O)*; Glu = glutamate linker

Columns and labels:
[1] = mice, i.v. tail vein
Description: Peptides were injected into the tail vein of mice. 4 hours post injection, mice were sacrificed and blood taken by heart punctation. Plasma was obtained by centrifugation and tested for remaining activity in antibody competition assay. As control, peptide was spiked into native plasma (ex vivo). IC50 values were determined by non-linear regression assuming 1.8 ml in vivo blood volume. Remaining activity was determined by IC50 (ex vivo)/IC50 (in vivo)×100. The tested peptides included JM #143 (SEQ ID NO.: 54), JM #144 (SEQ ID NO.: 55), JM #192 (SEQ ID NO.: 89), JM #180 (SEQ ID NO.: 77), JM #194 (SEQ ID NO.: 91), JM #235 (SEQ ID NO.: 130), JM #198 (SEQ ID NO.: 95), JM #255 (SEQ ID NO.: 150), JM #257 (SEQ ID NO.: 152) and JM #204 (SEQ ID NO.: 99). […] Shown are data from 2 individual mice measured in duplicates.
In vivo stability assay. 100 μl of a 700 μg/ml stock solution of the peptide in 0.9% NaCl was intravenously injected in the tail vein of C57BL/6NCrl (BL6) mice. 4 hours post injection, mice were killed by cervical dislocation. Mouse plasma was obtained by heart punctation. Blood was 19:1 diluted with 0.16 M NaEDTA and centrifuged at 2000×g for 20 min at 4° C. to obtain plasma. Plasma was stored at −80° C. till remaining peptide activity in the plasma was determined by 12G5 antibody competition assay.

[2] = test system: CXCL12 induced Ca2+-signalling; assay: Ca++ signaling in BCR-ABL-transformed murine bone marrow cells; type: cell-based; conditions: 1 μM
Description: Fifth, it was shown that the peptide derivatives inhibit calcium-signaling. CXCL12 stimulation of CXCR4 expressing B-cells leads to a strong calcium-release. In the presence of CXCR4 antagonists this response is reduced.
For calcium measurement, 1×10^6 BCR-ABL-transformed murine bone marrow cells were incubated with 5 μg/mL of Indo-1 (Molecular Probes) and 0.5 μg/mL of pluronic F-127 (Molecular Probes) in Iscove's medium supplemented with 1% FCS (Pan Biotech) at 37° C. for 45 min. Cells were then washed by centrifugation and the cell pellets were resuspended in Iscove's medium with 1% FCS and treated with the EPI-X4 derivatives (1 μM or 0.5 μM) for 10 minutes at room temperature. Cells were pre-warmed for 5 minutes at 37° C. Calcium flux was assessed by FACS measurement at BD LSR Fortessa. After 30 seconds of baseline recording, CXCR4-dependent calcium signaling was determined by stimulating with 100 ng/ml of mouse SDF-1a (PeproTech).

[3] = test system: CXCL12 induced migration of T-cells; assay: Migration assay (transwell, Jurkat cells); type: cell-based
Description: For each peptide, three independent experiments were performed. The error bars refer to the standard deviation.
Migration assay. Migration assays were performed using 96-well transwell assay plates (Corning Incorporated, Kennebunk, Me., USA) with 5 μm polycarbonate filters. […] Next, 75 μL (0.5×10^5 cells) of Jurkat cells (in assay buffer), together with/without the compounds, were added into the upper chambers. After 4 h at 37° C. (5% CO2), 100 μL of the lower chambers were transferred to a fresh 96 V-well plate and analyzed with Cell-Titer-Glo® assay (Promega, Madison, Wis., USA). The percentage of migrated cells was calculated as described by Balabanian et al. (2005). In order to obtain the relative migration in %, the percentage of migrated cells were normalized to the CXCL12-only control.

[4] = test system: CXCR4-tropic X4-HIV-1 (NL4-3); type: cell-based; conditions: for IC50: CXCR4-tropic X4- (NL4-3)
Description: The activity of the peptides was estimated by different assays.
The X4-HIV inhibition assay is designed to measure the activity of the inventive peptides by their efficiency of blocking the infection of tissue culture cells by CXCR4-tropic HIV-1 variants.
HIV-1 inhibition assay. […] For infection of TZM-bl cells in presence of inhibitors, cells were seeded at a density of 1×10^5 cells/ml in 70 μl DMEM containing 2.5% FCS. Compounds were diluted in PBS and 10 μl were added. After 15 minutes of incubation cells were inoculated with 20 μl of diluted virus. Infection rates were determined three days later using Gal-Screen system (Applied Biosystems).

[5] = test system: CXCL12-induced ERK signaling; assay: ERK/AKT signaling assay in SupT1 cells: ERK phosphorylation; type: cell-based
Description: (§1) Third, the activity of the claimed EPI-X4 derivatives was tested by the effect on CXCL12/CXCR4-mediated ERK (Extracellular-signal Regulated Kinases) and AKT (a serine/threonine-protein kinase) signaling (FIG. 3). In that assay CXCR4 expressing cells are stimulated with the CXCR4 chemokine-ligand CXCL12, which subsequently leads to phosphorylation of ERK and AKT. Preincubation of cells with CXCR4-antagonists blocks those pathways. […] Two or three independent experiments were carried out in triplicates for each peptide in each assay. The error bars refer to the standard deviation.
(§2) ERK/AKT signaling assay. CXCL12 induced ERK and AKT phosphorylation was determined in SupT1 cells. For this, 100,000 cells were seeded per well in a 96-V well plate in 100 μl medium supplemented with 1% FCS. Cells were incubated for 2 hours at 37° C. before 5 μl of compounds were added. After 15 min incubation at 37° C. cells were stimulated by adding 5 μl CXCL12 diluted in PBS to reach a final concentration of 100 ng/ml. Cells were further incubated for 2 min before the reaction was stopped by adding 20 μl of 10% PFA. Cells were fixed for 15 min at 4° C. before PFA was removed and cells permeabilized by adding 100 μl ice cold methanol. After 15 min at 4° C. the methanol was removed, cells were washed and 30 μl primary antibody was added (phospho-p44/42 MAPK (Erk1) (Tyr204)/(Erk2) (Tyr187) (D1H6G) mouse mAb #5726; phosphor-Akt (Ser473) (193H12) rabbit mAb #4058 Cell Signaling) for 1 hour at 4° C. After the antibody was removed and cells were washed secondary antibody was added for 30 min. Cells were washed afterwards and subsequently analyzed by flow cytometry.

[6] = test system: CXCL12-induced AKT signaling; assay: ERK/AKT signaling assay in SupT1 cells: AKT phosphorylation; type: cell-based
Description: as §1, §2

[7] = Functional stability assay in human plasma; conditions: human, plasma
Description: Fourth, the stability of peptides in human plasma and whole human blood was tested (FIG. 4). The functional stability of EPI-X4 (SEQ ID NO.: 1) derivatives was screened using a CXCR4 antibody-based screening approach. Peptides were diluted in full human plasma or blood (>99%) and the functional activity was then measured after either 2 hours or 8 hours and compared to a sample that was not incubated in plasma or blood.
In this test, the peptides were incubated in human plasma for a certain time period.
Stability assay. Whole blood was collected from healthy donors in EDTA tubes and directly used or subsequently centrifuged for 15 min at 2,500×g to obtain plasma. Plasma from 6 donors was pooled and stored in aliquots at −80° C. Compounds were 200-fold diluted in human plasma or whole human blood to reach final concentrations of 20 μM. The t=0 sample was immediately taken and stored at −80° C. Plasma/compound or blood/compound mixture was then transferred to 37° C. and shook at 350 rpm. At given time points samples were taken and stored at −80° C.°. For measuring the functional activity of the plasma/peptide samples, the mixtures were thawed and diluted in ice cold PBS. 12G5-APC antibody competition was then performed as described before. For blood/peptide functional stability, samples were thawed and centrifuged at 14,000 rpm to remove cells and debris. The supernatant was then diluted in PBS and 12G5-antibody competition assay was performed. After the 2 hours incubation, the cells were washed and 50 μl of 1-step-Fix/Lyse solution (Thermo Fisher #00-5333-54) was added for 15 minutes at room temperature. Afterwards cells were washed again and analyzed for bound antibody.

[8] = molecular target: T1, CXC chemokine receptor type 4 (CXCR4) (human, UniProt P61073 1-352); assay: competition
T1 chain: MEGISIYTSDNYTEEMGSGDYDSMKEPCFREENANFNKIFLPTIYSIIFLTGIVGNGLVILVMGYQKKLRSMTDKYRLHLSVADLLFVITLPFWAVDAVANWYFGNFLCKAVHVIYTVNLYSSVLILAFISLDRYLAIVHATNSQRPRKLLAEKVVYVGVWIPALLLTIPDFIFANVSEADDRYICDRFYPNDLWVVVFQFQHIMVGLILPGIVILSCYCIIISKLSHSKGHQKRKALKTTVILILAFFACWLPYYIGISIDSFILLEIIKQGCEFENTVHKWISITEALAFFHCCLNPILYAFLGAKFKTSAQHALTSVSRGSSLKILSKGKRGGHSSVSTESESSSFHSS

[9] = molecular target: T1, CXC chemokine receptor type 4 (CXCR4); assay: competition
[10] = molecular target: T1, CXC chemokine receptor type 4 (CXCR4); assay: 12G5 antibody competition
[11] = molecular target: CXC chemokine receptor type 4 (CXCR4) (human, UniProt P61073 1-352); assay: cell-based or functional assay

CCCCCCCCCCCCCCCC(=O)NCCCC[C@H](NC(=O)[C@H](CCCNC(=N)N)NC(=O)[C@H](CO)NC(=O)[C@H](Cc1c[nH]c2ccccc12)NC(=O)[C@H](CCCNC(=N)N)NC(=O)[C@H](CC(C)C)NC(=O)[C@@H](N)[C@@H](C)CC)C(=O)N[C@@H](CC(C)C)C(=O)N1CCC[C@H]1C(=O)N[C@@H](CS)C(=O)N[C@H](C(=O)N[C@@H](CO)C(=O)O)C(C)C [JM #144, ILRWSRK(Pal)LPCVS]
remaining activity in plasma in vivo 4 hours post injection ([1]; 4 hours post injection): 27%
reduction of CXCL12 induced calcium-signaling [2]: almost completely blocked calcium-signaling

CCCCCCCCCCCCCCCC(=O)NCCCC[C@H](NC(=O)[C@H](CCCNC(=N)N)NC(=O)[C@H](CO)NC(=O)[C@H](Cc1c[nH]c2ccccc12)NC(=O)[C@H](CCCNC(=N)N)NC(=O)[C@H](CC(C)C)NC(=O)[C@@H](N)[C@@H](C)CC)C(N)=O [JM #170, ILRWSRK(Pal)-NH2] (H-ILRWSRK(Palmitoyl)-NH2)
reduction of CXCL12 induced calcium-signaling [2]: almost completely blocked calcium-signaling

CCCCCCCCCCCCCCCC(=O)N[C@@H](CCC(=O)NCCCC[C@H](NC(=O)[C@H](CCCNC(=N)N)NC(=O)[C@H](CO)NC(=O)[C@H](Cc1c[nH]c2ccccc12)NC(=O)[C@H](CCCNC(=N)N)NC(=O)[C@H](CC(C)C)NC(=O)[C@@H](N)[C@@H](C)CC)C(=O)N[C@@H](CC(C)C)C(=O)N1CCC[C@H]1C(=O)N[C@@H](CS)C(=O)N[C@H](C(=O)N[C@@H](CO)C(=O)O)C(C)C)C(=O)O [JM #143, ILRWSRK(Glu-Pal)LPCVS]
inhibition of CXCL12 induced migration of T-cells (in words) [3]: strongly increased antagonistic effect in CXCL12 induced cell migration
IC50 [4]: 5 nM
fold increase of anti-HIV-1 potency compared to WSC02 ([4]; compared to WSC02): more than 60 fold
reduction of CXCL12-induced ERK signaling ([5]; 0.1 μM): 20-25%
reduction of CXCL12-induced ERK signaling ([5]; 1 μM): ~70%
reduction of CXCL12 induced calcium-signaling [2]: almost completely blocked calcium-signaling
reduction of CXCL12-induced AKT signaling ([6]; 0.1 μM): 20-25%
reduction of CXCL12-induced AKT signaling ([6]; 1 μM): ~70%

CC[C@H](C)[C@H](N)C(=O)N[C@@H](CC(C)C)C(=O)N[C@@H](CCCNC(=N)N)C(=O)N[C@@H](Cc1c[nH]c2ccccc12)C(=O)N[C@@H](CO)C(=O)N[C@@H](CCCNC(=N)N)C(=O)N[C@@H](CCCCN)C(N)=O [JM #118, ILRWSRK-NH2] (H-ILRWSRK-NH2)
inhibition of CXCL12 induced migration of T-cells (in words) [3]: even more effective than the full-length peptide
functional stability in human plasma (in words) [7]: rapidly inactivated in plasma

CC[C@H](C)[C@H](N)C(=O)N[C@@H](CC(C)C)C(=O)N[C@@H](CCCNC(=N)N)C(=O)N[C@@H](Cc1c[nH]c2ccccc12)C(=O)N[C@@H](CO)C(=O)N[C@@H](CCCNC(=N)N)C(=O)N[C@@H](CCCCN)C(=O)N[C@@H](CC(C)C)C(=O)N1CCC[C@H]1C(N)=O [JM #114] (H-ILRWSRKLP-NH2)
inhibition of CXCL12 induced migration of T-cells (in words) [3]: even more effective than the full-length peptide
functional stability in human plasma (in words) [7]: rapidly inactivated in plasma

CCCCCCCCCCCCCCCC(=O)N[C@@H](CCC(=O)O)C(=O)NCCCC[C@H](NC(=O)[C@H](CCCNC(=N)N)NC(=O)[C@H](CO)NC(=O)[C@H](Cc1c[nH]c2ccccc12)NC(=O)[C@H](CCCNC(=N)N)NC(=O)[C@H](CCSC)NC(=O)[C@H](N)CC(C)C)C(N)=O [JM #194, d-LMRWSRK(Glu-Pal)-NH2] (H-[dL]MRWSRK([Glu-Palmitoyl])-NH2; N-terminus assumed)
inhibition of CXCL12 induced migration of T-cells (in words) [3]: high activity
anti-HIV-1 activity (in words) [4]: strongly increased anti-HIV-1 activity
IC50 [4]: 2 nM
remaining activity in plasma in vivo 8 hours post injection ([1]; 8 hours post injection): about 9%
reduction of CXCL12 induced calcium-signaling [2]: almost completely blocked calcium-signaling

ILRWSRK([Glu-Palmitoyl])-NH2 [JM#192]
IC50 [8]: 4 nM

ILRWSRK([Glu-Palmitoyl])LPCVS [JM#143]
IC50 [9]: 204 nM
IC50 [8]: 176 nM

[dL]MRWSRKMPCVS [JM#36]
IC50 [10]: 305 nM

ILRWSRK(Palmitoyl)LPCVS [JM#144]
IC50, X4-HIV-1 inhibition assay [11]: < 5 nM
IC50 [9]: 125 nM
IC50 [8]: 87 nM

ILRWSRK(Ac)LPCVS [JM#200]
IC50, HIV inhibition assay [11]: 50 to 150 nM
IC50 [8]: 213 nM

ILRWSRK-NH2 [JM#118]
IC50, HIV inhibition assay [11]: > 150 nM
IC50 [9]: 181 nM
IC50 [8]: 224 nM

[dM]LRWSRKK([Glu-Palmitoyl])-NH2 [JM#197]
IC50 [10]: 5 nM

[dL]MRWSRKK([Glu-Palmitoyl])-NH2 [JM#195]
IC50 [10]: 3 nM

[dI]LRWSRKLP-NH2 [JM#174]
IC50, HIV inhibition assay [11]: > 150 nM
IC50 [10]: 480 nM
